Source: patent US8815249B2 (priority 1999, dated 2014)
Like-named read-outs stand apart in the source and are kept apart here. Non-standard residues stand in square brackets, D forms with d. Ava = NCCCCC(=O)O

Columns and labels:
[1] = test system: normal donor (DR0701) PBMC; format: cell-based, human
[2] = test system: HIV gp160(843-855) peptide; format: in vivo; details: B10.A (5R) mice, peptides in saline solution, serum day 35
Method: An ELISA assay for antibody responses following immunization with the experimental peptides indicated above was performed as follows. Fifty microliters (μl) of a solution of the coating peptide at 2 μg/well in 0.1 M carbonate buffer, pH 9.5 was added to each well of a 96-well Nunc-immunoplate (#442404) for an overnight incubation at 4° C. After aspiration, 250 μl of phosphate-buffer saline solution containing 3% fetal bovine serum (assay diluent) was added to each well for 2 hr at RT. After washing three times with assay diluent, 50 μl of 20-times diluted mouse serum in 1:3 serial dilution in assay diluent was added to each well for 2 hr at RT. After washing three times with assay diluent, 50 μl of 1 ÿg/ml biotinylated goat anti-mouse IgG1 or IgG2a was added to each well and incubated for 1 hr at RT. After washing three times with assay diluent, 50 μl of streptavidin-horse radish peroxidase conjugate (1:1000) was added to each well and incubated for 30 min at RT. After washing three times with assay diluent, 100 μl of tetramethylbenzidine/H2O2 solution (Pharmingen 264KK) was added to each well for 15 min in the dark at room temperature. The reaction was stopped with 100 μl 1N H2SO4 in each well and the absorbance was read immediately at 450 nm.
B10.A (5R) mice (H-2^k/b) were immunized with 20 nmole of peptides in 50 μl phosphate-buffered saline solution, intramuscularly in right and left rear legs on days 1 and 2, respectively. On day 14 the mice were boosted intramuscularly with 40 nmole of peptides in 200 μl Hank's balanced salts solution intramuscularly in a rear leg. On day 30 the mice were boosted intravenously with 40 nmole peptides dissolved in Hank's balanced salts solution (HBSS). On day 35 the mice were sacrificed and serum samples were assayed for antibody titers against the HIV gp160(843-855) peptide.

Substance | IFN-γ spots pulsed [1] [spots] | IFN-γ spots unpulsed [1] [spots] | Antibody induction, ELISA against HIV gp160(843-855) peptide ([2]; Dilution^−1 20) | Antibody induction, ELISA against HIV gp160(843-855) peptide ([2]; Dilution^−1 60) | Antibody induction, ELISA against HIV gp160(843-855) peptide ([2]; Dilution^−1 180) | Antibody induction, ELISA against HIV gp160(843-855) peptide ([2]; Dilution^−1 540)
AE-Her-48 (Ac-LRMK[Ava]VGSPYVSRLLGICL-NH2; SMILES CC[C@H](C)[C@H](NC(=O)CNC(=O)[C@H](CC(C)C)NC(=O)[C@H](CC(C)C)NC(=O)[C@H](CCCNC(=N)N)NC(=O)[C@H](CO)NC(=O)[C@@H](NC(=O)[C@H](Cc1ccc(O)cc1)NC(=O)[C@@H]1CCCN1C(=O)[C@H](CO)NC(=O)CNC(=O)[C@@H](NC(=O)CCCCNC(=O)[C@H](CCCCN)NC(=O)[C@H](CCSC)NC(=O)[C@H](CCCNC(=N)N)NC(=O)[C@H](CC(C)C)NC(C)=O)C(C)C)C(C)C)C(=O)N[C@@H](CS)C(=O)N[C@@H](CC(C)C)C(N)=O) | 1770 | 212 | – | – | – | –
AE-Her-38 (Ac-LRMK[Ava]SPYVSRLLGICL-NH2; SMILES CC[C@H](C)[C@H](NC(=O)CNC(=O)[C@H](CC(C)C)NC(=O)[C@H](CC(C)C)NC(=O)[C@H](CCCNC(=N)N)NC(=O)[C@H](CO)NC(=O)[C@@H](NC(=O)[C@H](Cc1ccc(O)cc1)NC(=O)[C@@H]1CCCN1C(=O)[C@H](CO)NC(=O)CCCCNC(=O)[C@H](CCCCN)NC(=O)[C@H](CCSC)NC(=O)[C@H](CCCNC(=N)N)NC(=O)[C@H](CC(C)C)NC(C)=O)C(C)C)C(=O)N[C@@H](CS)C(=O)N[C@@H](CC(C)C)C(N)=O) | 210 | 27 | – | – | – | –
AE-Her-39 (Ac-LRMK[Ava]GVGSPYVSRLLGICL-NH2; SMILES CC[C@H](C)[C@H](NC(=O)CNC(=O)[C@H](CC(C)C)NC(=O)[C@H](CC(C)C)NC(=O)[C@H](CCCNC(=N)N)NC(=O)[C@H](CO)NC(=O)[C@@H](NC(=O)[C@H](Cc1ccc(O)cc1)NC(=O)[C@@H]1CCCN1C(=O)[C@H](CO)NC(=O)CNC(=O)[C@@H](NC(=O)CNC(=O)CCCCNC(=O)[C@H](CCCCN)NC(=O)[C@H](CCSC)NC(=O)[C@H](CCCNC(=N)N)NC(=O)[C@H](CC(C)C)NC(C)=O)C(C)C)C(C)C)C(=O)N[C@@H](CS)C(=O)N[C@@H](CC(C)C)C(N)=O) | 160 | 24 | – | – | – | –
Ac-LRMK-ava-AYRAIRHIPR-NH2 (Ac-LRMK[Ava]AYRAIRHIPR-NH2; SMILES CC[C@H](C)[C@H](NC(=O)[C@H](C)NC(=O)[C@H](CCCNC(=N)N)NC(=O)[C@H](Cc1ccc(O)cc1)NC(=O)[C@H](C)NC(=O)CCCCNC(=O)[C@H](CCCCN)NC(=O)[C@H](CCSC)NC(=O)[C@H](CCCNC(=N)N)NC(=O)[C@H](CC(C)C)NC(C)=O)C(=O)N[C@@H](CCCNC(=N)N)C(=O)N[C@@H](Cc1c[nH]cn1)C(=O)N[C@H](C(=O)N1CCC[C@H]1C(=O)N[C@@H](CCCNC(=N)N)C(N)=O)[C@@H](C)CC) [Ii-Key/one-ava/gp160(843-855)] | – | – | 0.600 | 0.157 | 0.073 | 0.024
Ac-LRMK-ava-ava-AYRAIRHIPR-NH2 (Ac-LRMK[Ava][Ava]AYRAIRHIPR-NH2; SMILES CC[C@H](C)[C@H](NC(=O)[C@H](C)NC(=O)[C@H](CCCNC(=N)N)NC(=O)[C@H](Cc1ccc(O)cc1)NC(=O)[C@H](C)NC(=O)CCCCNC(=O)CCCCNC(=O)[C@H](CCCCN)NC(=O)[C@H](CCSC)NC(=O)[C@H](CCCNC(=N)N)NC(=O)[C@H](CC(C)C)NC(C)=O)C(=O)N[C@@H](CCCNC(=N)N)C(=O)N[C@@H](Cc1c[nH]cn1)C(=O)N[C@H](C(=O)N1CCC[C@H]1C(=O)N[C@@H](CCCNC(=N)N)C(N)=O)[C@@H](C)CC) [Ii-Key/two-ava/gp160(843-855)] | – | – | 0.131 | 0.039 | 0.027 | 0.003
